Assay results published in US20250066389A1, “HETEROCYCLIC AMIDES AND METHODS OF USING THE SAME” (Rgenta Therapeutics, Inc., priority 2021, published 2025).
Counter-ions that a name gives are not always drawn.

Test system: PMS1
Assay: Mini-Gene Reporter Assay—PMS1 (firefly luciferase mini-gene reporter transiently transfected into HEK293 cells)
Assay type: cell-based
Details: Homo sapiens; at 5 uM; mini-gene firefly luciferase reporter in HEK293 cells; read-out: PMS1 % Effect at 5 uM
In short: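 Luminescence (RLU) read-out of exon inclusion: compound dilutions, tested in duplicate, act on transiently transfected HEK293 cells carrying a firefly luciferase reporter fused downstream of the PMS1 skipped-exon region. Potency derived by Levenberg-Marquardt curve fitting, with percent effect at 5 μM.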

Row | Structure (SMILES) | activation at 5 µM
1 | CCOc1cc2nn(C)cc2cc1C(=O)Nc1ccc(N2CCN(C(=O)OC(C)OC(=O)C(C)C)[C@@H](C)C2)nn1 (stereo partly drawn) [Compound 747, 1-(isobutyryloxy)ethyl (2S)-4-(6-(6-ethoxy-2-methyl-2H-indazole-5-carboxamido)pyridazin-3-yl)-2-methylpiperazine-1-carboxylate] | > 75%
2 | CCOc1cc2nc(C)cn2cc1C(=O)Nc1ccc(N2CC3CNCC3C2)nn1 (stereo not drawn) [Compound 748, (7-ethoxy-N-(6-(hexahydropyrrolo[3,4-c]pyrrol-2(1H)-yl)pyridazin-3-yl)-2-methylimidazo[1,2-a]pyridine-6-carboxamide formate] | > 75%
3 | CCOc1cc2nn(C)cc2cc1C(=O)Nc1ccc(N2CCNCC2)nn1 [Compound 749, 6-ethoxy-2-methyl-N-(6-(piperazin-1-yl)pyridazin-3-yl)-2H-indazole-5-carboxamide hydrochloride] | > 75%
4 | CCOc1cc2nn(C)cc2cc1C(=O)Nc1ccc(N2CCN[C@H](C)C2)nn1 [Compound 750, (R)-6-ethoxy-2-methyl-N-(6-(3-methylpiperazin-1-yl)pyridazin-3-yl)-2H-indazole-5-carboxamide hydrochloride] | > 75%
5 | CCOc1cc2nn(C)cc2cc1C(=O)Nc1ccc(N2C[C@@H](C)N[C@@H](C)C2)nn1 [Compound 751, N-(6-((3S,5R)-3,5-dimethylpiperazin-1-yl)pyridazin-3-yl)-6-ethoxy-2-methyl-2H-indazole-5-carboxamide hydrochloride] | > 75%
6 | CCOc1cc2nn(C)cc2cc1C(=O)Nc1ccc(C2=CC(C)NCC2)nn1 (stereo not drawn) [Compound 752, 6-ethoxy-2-methyl-N-(6-(6-methyl-1,2,3,6-tetrahydropyridin-4-yl)pyridazin-3-yl)-2H-indazole-5-carboxamide] | > 75%
7 | CCOc1cn2nc(C)cc2cc1C(=O)Nc1ccc(N2CCNCC2)nn1 [Compound 753, 6-ethoxy-2-methyl-N-(6-(piperazin-1-yl)pyridazin-3-yl)pyrazolo[1,5-a]pyridine-5-carboxamide hydrochloride] | > 75%
8 | CCOc1cn2nc(C)cc2cc1C(=O)Nc1ccc(C2=CCNCC2)nn1 [Compound 754, 6-ethoxy-2-methyl-N-(6-(1,2,3,6-tetrahydropyridin-4-yl)pyridazin-3-yl)pyrazolo[1,5-a]pyridine-5-carboxamide hydrochloride] | > 75%
9 | CCOc1cn2nc(C)cc2cc1C(=O)Nc1ccc(N2CCNC(C)(C)C2)nn1 [Compound 755, N-(6-(3,3-dimethylpiperazin-1-yl)pyridazin-3-yl)-6-ethoxy-2-methylpyrazolo[1,5-a]pyridine-5-carboxamide hydrochloride] | > 75%
10 | CCOc1cc2nn(C)cc2cc1C(=O)Nc1ccc(C2=CC(C)(C)NCC2)nn1 [Compound 756, N-(6-(6,6-dimethyl-1,2,3,6-tetrahydropyridin-4-yl)pyridazin-3-yl)-6-ethoxy-2-methyl-2H-indazole-5-carboxamide formate] | > 75%
11 | CCOc1cn2nc(C)cc2cc1C(=O)Nc1ccc(C2CCNCC2)nn1 [Compound 757, 6-ethoxy-2-methyl-N-(6-(piperidin-4-yl)pyridazin-3-yl)pyrazolo[1,5-a]pyridine-5-carboxamide hydrochloride] | > 75%
12 | CCOc1cc2nc(C)cn2cc1C(=O)Nc1ccc(N2CC(C)NC(CC)C2)nn1 (stereo not drawn) [Compound 758, 7-ethoxy-N-(6-(3-ethyl-5-methylpiperazin-1-yl)pyridazin-3-yl)-2-methylimidazo[1,2-a]pyridine-6-carboxamide] | > 75%
13 | CCOc1cc2nc(C)cn2cc1C(=O)Nc1ccc(C2=CCN(C)CC2)nn1 [Compound 759, 7-ethoxy-2-methyl-N-(6-(1-methyl-1,2,3,6-tetrahydropyridin-4-yl)pyridazin-3-yl)imidazo[1,2-a]pyridine-6-carboxamide] | > 75%
14 | CCOc1cn2nc(C)cc2cc1C(=O)Nc1ccc(N2C[C@@H](C)N[C@@H](C)C2)nn1 [Compound 761, N-(6-((3R,5S)-3,5-dimethylpiperazin-1-yl)pyridazin-3-yl)-6-ethoxy-2-methylpyrazolo[1,5-a]pyridine-5-carboxamide hydrochloride] | > 75%

Same assay, conditions: Homo sapiens; mini-gene firefly luciferase reporter in HEK293 cells

Row | Structure (SMILES) | IC50
15 | CCOc1cc2nc(C)cn2cc1C(=O)Nc1ccc(N2CCN(C)[C@@H](C)C2)nn1 [Compound 737, (S)—N-(6-(3,4-dimethylpiperazin-1-yl)pyridazin-3-yl)-7-ethoxy-2-methylimidazo[1,2-a]pyridine-6-carboxamide formate] | 1 to 10 µM
16 | CCOc1cc2nn(C)cc2cc1C(=O)Nc1ccc(N2CCN3CCC[C@H]3C2)nn1 [Compound 738, (S)-6-ethoxy-N-(6-(hexahydropyrrolo[1,2-a]pyrazin-2(1H)-yl)pyridazin-3-yl)-2-methyl-2H-indazole-5-carboxamide] | 1 to 10 µM
17 | CCOc1cc2nn(C)cc2cc1C(=O)Nc1ccc(N2CCN3CCC[C@@H]3C2)nn1 [Compound 739, (R)-6-ethoxy-N-(6-(hexahydropyrrolo[1,2-a]pyrazin-2(1H)-yl)pyridazin-3-yl)-2-methyl-2H-indazole-5-carboxamide formate] | 1 to 10 µM
18 | CCOc1cc2nc(C)cn2cc1C(=O)Nc1ccc(N2C[C@@H](C)N(C)[C@@H](C)C2)nn1 [Compound 740, 7-ethoxy-2-methyl-N-(6-((3S,5R)-3,4,5-trimethylpiperazin-1-yl)pyridazin-3-yl)imidazo[1,2-a]pyridine-6-carboxamide] | 1 to 10 µM
19 | CCOc1cc2nc(C)cn2cc1C(=O)Nc1cc(C)c(N2CCN[C@@H](C)C2)nn1 [Compound 741, (S)-7-ethoxy-2-methyl-N-(5-methyl-6-(3-methylpiperazin-1-yl)pyridazin-3-yl)imidazo[1,2-a]pyridine-6-carboxamide formate] | 1 to 10 µM
20 | CCOc1nc2nn(C)cc2cc1C(=O)Nc1cnc(N2CCNCC2)cn1 [Compound 742, 6-ethoxy-2-methyl-N-(5-(piperazin-1-yl)pyrazin-2-yl)-2H-pyrazolo[3,4-b]pyridine-5-carboxamide hydrochloride] | 1 to 10 µM
21 | CCOc1cc2nn(C)cc2cc1C(=O)Nc1cnc(N2CCN(C)[C@@H](C)C2)cn1 [Compound 743, (S)—N-(5-(3,4-dimethylpiperazin-1-yl)pyrazin-2-yl)-6-ethoxy-2-methyl-2H-indazole-5-carboxamide formate] | 1 to 10 µM
22 | CCOc1cn2nc(C)cc2cc1C(=O)Nc1cnc(N2C[C@@H](C)N[C@@H](C)C2)cn1 [Compound 744, N-(5-((3S,5R)-3,5-dimethylpiperazin-1-yl)pyrazin-2-yl)-6-ethoxy-2-methylpyrazolo[1,5-a]pyridine-5-carboxamide hydrochloride] | 1 to 10 µM
23 | CCOc1cc2nc(C)cn2cc1C(=O)Nc1ccc(N2CC3CN(C)CC3C2)nn1 (stereo not drawn) [Compound 745, 7-ethoxy-2-methyl-N-(6-(5-methylhexahydropyrrolo[3,4-c]pyrrol-2(1H)-yl)pyridazin-3-yl)imidazo[1,2-a]pyridine-6-carboxamide formate] | 1 to 10 µM
24 | COc1cc2nn(C)cc2cc1C(=O)Nc1cnc(N2CCNCC2)cn1 [Compound 746, 6-methoxy-2-methyl-N-(5-(piperazin-1-yl)pyrazin-2-yl)-2H-indazole-5-carboxamide formate] | 1 to 10 µM
